Assay results reported in patent US20030050306A1, “Novel heteroaryl derivatives, their preparation and use” (H. Lundbeck A/S, priority 1999, published 2003).

Tests used:
[1] = molecular target: T1, cloned human 5-HT1A receptors (Homo sapiens, UniProt P08908); assay: Inhibition of 3H-5-CT binding to human 5-HT1A receptors; settings: cloned human 5-HT1A receptors in HeLa cells (HA7); for inhibition at 0.1 µM: at 100 nM
T1 construct: expressed in transfected cells; host or cells: HeLa cells (HA7)
T1 sequence (P08908 1-422): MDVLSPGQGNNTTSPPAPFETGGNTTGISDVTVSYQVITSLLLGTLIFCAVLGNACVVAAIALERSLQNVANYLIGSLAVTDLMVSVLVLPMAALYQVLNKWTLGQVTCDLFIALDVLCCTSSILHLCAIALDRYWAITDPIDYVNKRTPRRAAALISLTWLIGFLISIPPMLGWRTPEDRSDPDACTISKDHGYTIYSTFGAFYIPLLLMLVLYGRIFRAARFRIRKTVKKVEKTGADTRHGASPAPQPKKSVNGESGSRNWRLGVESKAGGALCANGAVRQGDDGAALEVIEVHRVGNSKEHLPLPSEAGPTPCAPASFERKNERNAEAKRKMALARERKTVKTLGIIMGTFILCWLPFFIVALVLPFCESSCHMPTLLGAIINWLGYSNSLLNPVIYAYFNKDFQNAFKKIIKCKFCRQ
Procedure: The affinity of the compounds of the invention to 5-HT1A receptors was determined by measuring the inhibition of binding of a radioactive ligand at 5-HT1A receptors as described in the following test:
Inhibition of ^3H-5-CT Binding to Human 5-HT1A Receptors
By this method the inhibition by drugs of the binding of the 5-HT1A agonist ^3H-5-carboxamido tryptamine (3H-5-CT) to cloned human 5-HT1A receptors stably expressed in transfected HeLa cells (HA7) (Fargin, A. et al, J. Biol. Chem., 1989, 264, 14848) is determined in vitro. The assay was performed as a modification of the method described by Harrington, M. A. et at, J. Pharmacol. Exp. Ther., 1994, 268, 1098. Human 5-HT1A receptors (40 μg of cell homogenate) were incubated for 15 minutes at 37° C. in 50 mM Tris buffer at pH 7.7 in the presence of ^3H-5-CT. Non-specific binding was determined by including 10 μM of metergoline. The reaction was terminated by rapid filtration through Unifilter GF/B filters on a Tomtec Cell Harvester. Filters were counted in a Packard Top Counter.

[2] = molecular target: T2, human cloned dopamine D4.2 receptors (Homo sapiens, UniProt P21917, DEL265-296); assay: Inhibition of the binding of 3H-YM-09151-2 to human dopamine D4 receptors; settings: human cloned dopamine D4.2 receptors in CHO-cells
T2 construct: expressed in transfected cells; host or cells: CHO cells
T2 sequence (P21917 with tags, fused parts or gaps DEL265-296): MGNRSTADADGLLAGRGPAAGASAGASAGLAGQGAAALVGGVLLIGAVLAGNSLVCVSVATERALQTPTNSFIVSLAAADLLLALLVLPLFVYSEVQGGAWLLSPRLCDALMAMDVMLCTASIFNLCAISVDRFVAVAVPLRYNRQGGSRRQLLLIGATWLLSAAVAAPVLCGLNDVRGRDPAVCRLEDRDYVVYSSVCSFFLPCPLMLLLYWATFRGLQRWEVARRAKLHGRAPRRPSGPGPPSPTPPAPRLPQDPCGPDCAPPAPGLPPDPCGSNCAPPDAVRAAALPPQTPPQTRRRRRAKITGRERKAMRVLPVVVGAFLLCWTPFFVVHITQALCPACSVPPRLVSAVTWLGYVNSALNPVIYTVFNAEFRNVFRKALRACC
Procedure: The compounds of the invention have also been tested for their affinity to dopamine D4 receptors in the following test.
Inhibition of the Binding of ^3H-YM-09151-2 to Human Dopamine D4 Receptors
By this method the inhibition by drugs of the binding of [^3H]YM-09151-2 (0.06 nM) to membranes of human cloned dopamine D4.2 receptors expressed in CHO-cells is determined in vitro. Method modified from NEN Life Science Products, Inc., technical data certificate PC2533-10/96.

Row | inhibition at 0.1 µM [1] [%] | IC50 [2] [nM] | IC50 [1] [nM] | inhibition at 0.05 µM ([2]; at 50 nM) [%] | SMILES
1 | 33 | 23 |  |  | Cc1cccc(Cl)c1SCCCCN1CCN(c2cc(Cl)cc3c2OC(C)(C)C3)CC1 [Compound 5ax, 1-(5-Chloro-2,2-dimethyl-2,3-dihydro-benzofuran-7-yl)-4-[4-(2-chloro-6-methyl-phenylsulfanyl)-butyl]-piperazine]
2 | 14 | 12 |  |  | Cc1cccc(Cl)c1SCCCCN1CCN(c2cc(Cl)cc3c2OCC3(C)C)CC1 [Compound 5ay, 1-(5-Chloro-3,3-dimethyl-2,3-dihydro-benzofuran-7-yl)-4-[4-(2-chloro-6-methyl-phenylsulfanyl)-butyl]-piperazine]
3 | 18 | 9.9 |  |  | CC1(C)Cc2cc(Cl)cc(N3CCN(CCCSc4c(Cl)cccc4Cl)CC3)c2O1 [Compound 5az, 1-(5-Chloro-2,2-dimethyl-2,3-dihydro-benzofuran-7-yl)-4-[3-(2,6-dichloro-phenylsulfanyl)-propyl]-piperazine]
4 |  | 1.9 | 53 |  | Fc1ccc(OCCCCN2CCN(c3cccc4ccsc34)CC2)c(Cl)c1 [Compound 5bc, 1-Benzo[b]thiophen-7-yl-4-[4-(2-chloro-4-fluoro-phenoxy)-butyl]-piperazine]
5 |  | 6.5 | 52 |  | CC1(C)Cc2cc(Cl)cc(N3CCN(CCCCOc4ccc(F)cc4Cl)CC3)c2O1 [Compound 5bd, 1-(5-Chloro-2,2-dimethyl-2,3-dihydro-benzofuran-7-yl)-4-[4-(2-chloro-4-fluoro-phenoxy)-butyl]-piperazine]
6 |  | 1.2 | 8 |  | Fc1ccc(OCCCCN2CCN(c3cccc4c3OCCO4)CC2)c(Br)c1 [Compound 5be, 1-[4-(2-Bromo-4-fluoro-phenoxy)-butyl]-4-(2,3-dihydro-benzo[1,4]dioxin-5-yl)-piperazine]
7 |  | 3.1 | 35 |  | Fc1ccc(OCCCCN2CCN(c3cccc4ccsc34)CC2)c(Br)c1 [Compound 5bf, 1-Benzo[b]thiophen-7-yl-4-[4-(2-bromo-4-fluoro-phenoxy)-butyl]-piperazine]
8 |  | 76 | 1.7 |  | CC1(C)Cc2cc(Cl)cc(N3CCN(CCCOc4c(Cl)cc(S(C)(=O)=O)cc4Cl)CC3)c2O1 [Compound 5bh, 1-(5-Chloro-2,2-dimethyl-2,3-dihydro-benzofuran-7-yl)-4-[3-(2,6-dichloro-4-methanesulfonyl-phenoxy)-propyl]-piperazine]
9 |  | 87 | 3.5 |  | CC1(C)COc2c(N3CCN(CCCOc4c(Cl)cc(S(C)(=O)=O)cc4Cl)CC3)cc(Cl)cc21 [Compound 5bi, 1-(5-Chloro-3,3-dimethyl-2,3-dihydro-benzofuran-7-yl)-4-[3-(2,6-dichloro-4-methanesulfonyl-phenoxy)-propyl]-piperazine]
10 |  | 11 | 22 |  | CC1(C)Cc2cc(Cl)cc(N3CCN(CCCOc4c(Cl)cc(F)cc4Cl)CC3)c2O1 [Compound 5bk, 1-(5-Chloro-2,2-dimethyl-2,3-dihydro-benzofuran-7-yl)-4-[3-(2,6-dichloro-4-fluoro-phenoxy)-propyl]-piperazine]
11 |  | 26 | 88 |  | CC1(C)COc2c(N3CCN(CCCOc4c(Cl)cc(F)cc4Cl)CC3)cc(Cl)cc21 [Compound 5bl, 1-(5-Chloro-3,3-dimethyl-2,3-dihydro-benzofuran-7-yl)-4-[3-(2,6-dichloro-4-fluoro-phenoxy)-propyl]-piperazine]
12 |  | 2.4 | 1.7 |  | Fc1cc(F)c(OCCCN2CCN(c3cccc4c3OCCO4)CC2)c(Br)c1 [Compound 5bo, 1-[3-(2-Bromo-4,6-difluoro-phenoxy)-propyl]-4-(2,3-dihydro-benzo[1,4]dioxin-5-yl)-piperazine]
13 |  | 6.2 | 4.8 |  | Fc1cc(Cl)c(OCCCCN2CCN(c3cccc4c3OCCO4)CC2)c(Cl)c1 [Compound 5bp, 1-[4-(2,6-Dichloro-4-fluoro-phenoxy)-butyl]-4-(2,3-dihydro-benzo[1,4]dioxin-5-yl)-piperazine]
14 |  | 6.3 | 8.6 |  | Fc1cc(F)c(OCCCN2CCN(c3cccc4ccsc34)CC2)c(Br)c1 [Compound 5bt, 1-Benzo[h]thiophen-7-yl-4-[3-(2-bromo-4,6-difluoro-phenoxy)-propyl]-piperazine]
15 |  | 19 | 2.2 |  | N#Cc1cc(Br)c(OCCCN2CCN(c3cccc4c3OCCO4)CC2)c(Br)c1 [Compound 5bx, 3,5-Dibromo-4-{3-[4-(2,3-dihydro-benzo[1,4]dioxin-5-yl)-piperazin-1-yl]-propoxy}-benzonitrile]
16 |  | 4.3 | 2.5 |  | Fc1cc(Br)c(OCCCCN2CCN(c3cccc4c3OCCO4)CC2)c(Br)c1 [Compound 5by]
17 |  | 10 | 5 |  | Fc1cc(Br)cc(F)c1OCCCCN1CCN(c2cccc3c2OCCO3)CC1 [Compound 5bz, 1-[4-(4-Bromo-2,6-difluoro-phenoxy)-butyl]-4-(2,3-dihydro-benzo[1,4]dioxin-5-yl)-piperazine]
18 |  | 34 | 9.7 |  | Fc1cc(Br)cc(F)c1OCCCCN1CCN(c2cccc3ccsc23)CC1 [Compound 5cc, 1-Benzo[b]thiophen-7-yl-4-[4-(4-bromo-2,6-difluoro-phenoxy)-butyl]-piperazine]
19 |  | 2.3 | 8.8 |  | Clc1ccccc1SCCCN1CCN(c2cccc3c2OCCO3)CC1 [Compound 5cd, 1-[3-(2-Chloro-phenylsulfanyl)-propyl]-4-(2,3-dihydro-benzo[1,4]dioxin-5-yl)-piperazine]
20 |  | 16 | 4.8 |  | Clc1ccccc1SCCCN1CCN(c2cccc3ccsc23)CC1 [Compound 5ce, 1-Benzo[b]thiophen-7-yl-4-[3-(2-chloro-phenylsulfanyl)-propyl]-piperazine]
21 |  | 1.4 | 4.9 |  | Fc1ccc(OCCCN2CCN(c3cccc4c3OCCO4)CC2)c(F)c1 [Compound 5cf, 1-[3-(2,4-Difluoro-phenoxy)-propyl]-4-(2,3-dihydro-benzo[1,4]dioxin-5-yl)-piperazine]
22 |  | 12 | 1.7 |  | Fc1cc(Br)cc(F)c1OCCCN1CCN(c2cccc3c2OCCO3)CC1 [Compound 5cg, 1-[3-(4-Bromo-2,6-difluoro-phenoxy)-propyl]-4-(2,3-dihydro-benzo[1,4]dioxin-5-yl)-piperazine]
23 |  | 2 | 3.5 |  | Fc1ccc(OCCCN2CCN(c3cccc4ccsc34)CC2)c(F)c1 [Compound 5ci, 1-Benzo[b]thiophen-7-yl-4-[3-(2,4-difluoro-phenoxy)-propyl]-piperazine]
24 | 93 | 59 |  |  | Fc1cc(Br)cc(F)c1OCCCN1CCN(c2cccc3ccsc23)CC1 [Compound 5cj, 1-Benzo[b]thiophen-7-yl-4-[3-(4-bromo-2,6-difluoro-phenoxy)-propyl]-piperazine]
25 |  |  | 180 | 77 | N#Cc1ccc(N2CCN(CCCOc3ccc(F)cc3Cl)CC2)c2c1OCCO2 [Compound 5ck, 8-{4-[3-(2-chloro-4-fluorophenoxy)-propyl]-piperazin-1-yl}-2,3-dihydro-benzo[1,4]dioxine-5-carbonitrile]

Row | SMILES | inhibition at 0.1 µM [1] [%] | IC50 [2] [nM] | IC50 [1] [nM] | inhibition at 0.05 µM ([2]; at 50 nM) [%]
26 | Brc1cc(Br)c(OCCCN2CCN(c3cccc4c3OCCO4)CC2)c(Br)c1 [Compound 5bq, 1-(2,3-Dihydro-benzof[1,4]dioxin-5-yl)-4-[3-(2,4,6-tribromo-phenoxy)-propyl]-piperazine] |  | 2.4 | 1.2 | 
